Tests used:
Experiment in all cases: two-electrode voltage clamp, Xenopus oocytes
[1] = test system: T1, OR20; assay type: cell-based, Cimex lectularius; conditions: co-expressed with ORCO; pH 7.6 Ringer's solution; −80 mV; agonist current
T1 construct: full-length cDNA from adult antennae in pT7Ts; co-expressed with ORCO in Xenopus oocytes; with Odorant receptor coreceptor

[2] = test system: T2, OR21; assay type: cell-based, Cimex lectularius; conditions: co-expressed with ORCO; pH 7.6 Ringer's solution; −80 mV; agonist current
T2 construct: full-length cDNA from adult antennae in pT7Ts; co-expressed with ORCO in Xenopus oocytes; with Odorant receptor coreceptor

[3] = test system: T3, OR19; assay type: cell-based, Cimex lectularius; conditions: co-expressed with ORCO; pH 7.6 Ringer's solution; −80 mV; agonist current
T3 construct: full-length cDNA from adult antennae in pT7Ts; co-expressed with ORCO in Xenopus oocytes; with Odorant receptor coreceptor

[4] = molecular target: T4, OR37 (Cimex lectularius, UniProt A0A8I6S1W4); assay type: cell-based; conditions: co-expressed with ORCO; pH 7.6 Ringer's solution; −80 mV; agonist current
T4 construct: gene 106669445; full-length cDNA from adult antennae in pT7Ts; co-expressed with ORCO in Xenopus oocytes; with Odorant receptor coreceptor

[5] = test system: T5, OR46; assay type: cell-based, Cimex lectularius; conditions: co-expressed with ORCO; pH 7.6 Ringer's solution; −80 mV; agonist current
T5 construct: full-length cDNA from adult antennae in pT7Ts; co-expressed with ORCO in Xenopus oocytes; with Odorant receptor coreceptor

[6] = test system: T6, OR36; assay type: cell-based, Cimex lectularius; conditions: co-expressed with ORCO, pH 7.6 Ringer's solution, −80 mV, agonist current
T6 construct: full-length cDNA from adult antennae in pT7Ts; co-expressed with ORCO in Xenopus oocytes; with Odorant receptor coreceptor

[7] = test system: T7, OR42; assay type: cell-based, Cimex lectularius; conditions: co-expressed with ORCO; pH 7.6 Ringer's solution; −80 mV; agonist current
T7 construct: full-length cDNA from adult antennae in pT7Ts; co-expressed with ORCO in Xenopus oocytes; with Odorant receptor coreceptor

[8] = test system: T8, OR1; assay type: cell-based, Cimex lectularius; conditions: co-expressed with ORCO; pH 7.6 Ringer's solution; −80 mV; agonist current
T8 construct: full-length cDNA from adult antennae in pT7Ts; co-expressed with ORCO in Xenopus oocytes; OR numbering of the bed bug genome annotation (47 ORs), not the earlier group naming in which OR5 was called OR1; with Odorant receptor coreceptor

[9] = test system: T9, OR47; assay type: cell-based, Cimex lectularius; conditions: co-expressed with ORCO; pH 7.6 Ringer's solution; −80 mV; agonist current
T9 construct: full-length cDNA from adult antennae in pT7Ts; co-expressed with ORCO in Xenopus oocytes; with Odorant receptor coreceptor

[10] = test system: T10, OR5; assay type: cell-based, Cimex lectularius; conditions: co-expressed with ORCO; pH 7.6 Ringer's solution; −80 mV; agonist current
T10 construct: full-length cDNA from adult antennae in pT7Ts; co-expressed with ORCO in Xenopus oocytes; called OR1 in the group's previous work; with Odorant receptor coreceptor

[11] = test system: T11, OR12; assay type: cell-based, Cimex lectularius; conditions: co-expressed with ORCO; pH 7.6 Ringer's solution; −80 mV; agonist current
T11 construct: full-length cDNA from adult antennae in pT7Ts; co-expressed with ORCO in Xenopus oocytes; with Odorant receptor coreceptor

[12] = test system: T12, OR15; assay type: cell-based, Cimex lectularius; conditions: co-expressed with ORCO; pH 7.6 Ringer's solution; −80 mV; agonist current
T12 construct: full-length cDNA from adult antennae in pT7Ts; co-expressed with ORCO in Xenopus oocytes; with Odorant receptor coreceptor

T4 sequence (A0A8I6S1W4 1-374): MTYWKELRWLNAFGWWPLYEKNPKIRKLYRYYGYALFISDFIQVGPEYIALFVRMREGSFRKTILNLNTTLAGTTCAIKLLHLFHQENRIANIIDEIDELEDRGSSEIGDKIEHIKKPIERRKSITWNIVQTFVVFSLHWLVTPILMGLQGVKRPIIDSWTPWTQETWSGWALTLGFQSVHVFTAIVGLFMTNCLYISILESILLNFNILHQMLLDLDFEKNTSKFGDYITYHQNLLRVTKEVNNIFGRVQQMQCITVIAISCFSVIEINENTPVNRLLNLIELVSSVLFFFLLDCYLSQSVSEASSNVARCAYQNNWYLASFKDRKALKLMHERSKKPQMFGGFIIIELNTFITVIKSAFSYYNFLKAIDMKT
T4 sequence (A0A0A0U7J0 1-451 partner): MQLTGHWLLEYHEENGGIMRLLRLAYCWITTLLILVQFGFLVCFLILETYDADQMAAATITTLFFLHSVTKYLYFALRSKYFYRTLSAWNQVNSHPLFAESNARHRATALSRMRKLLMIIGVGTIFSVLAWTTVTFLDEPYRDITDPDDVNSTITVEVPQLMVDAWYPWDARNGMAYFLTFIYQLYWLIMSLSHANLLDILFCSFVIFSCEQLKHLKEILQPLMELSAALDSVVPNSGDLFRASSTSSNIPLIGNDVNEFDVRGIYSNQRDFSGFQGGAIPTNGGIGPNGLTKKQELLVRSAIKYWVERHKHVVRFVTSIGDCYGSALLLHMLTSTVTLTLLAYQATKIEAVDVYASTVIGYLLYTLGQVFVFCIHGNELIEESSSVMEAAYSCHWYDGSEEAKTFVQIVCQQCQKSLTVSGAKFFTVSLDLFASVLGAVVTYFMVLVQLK

In the case of C=CC(O)CCCCC (centres unmarked) [1-octen-3-ol], the EC50 [1] is reported as 6.95 × 10^−6 v/v dilution.
In the case of CC1=CC[C@@H]2[C@H](C1)C2(C)C [1s-(+)-3-carene], the EC50 [1] is reported as 6.85 × 10^−6 v/v dilution.
CCCCCCCCC(C)O (centres unmarked) [2-decanol] was tested, and the EC50 [2] was 7.55 × 10^−6 v/v dilution.
CCCCC(C)=O [2-hexanone] was tested, and the EC50 [3] was 1.33 × 10^−6 v/v dilution.
CCCC(C)=O [2-pentanone] was tested, and the EC50 [3] was 4.13 × 10^−6 v/v dilution.
CC(C)[C@H]1CC[C@H](C)CC1=O [(+)-menthone] was tested, and the EC50 [4] was 1.93 × 10^−7 v/v dilution, the EC50 [5] was 3.46 × 10^−5 v/v dilution and the EC50 ([6]; b26 prints 9.67 × 10^−8 for the same pair) was 9.92 × 10^−8 v/v dilution.
With CC1=CC[C@@H]2C[C@H]1C2(C)C [(+)-α-pinene] the EC50 [7] was 1.32 × 10^−5 v/v dilution.
With CC(C)[C@@H]1CC[C@@H](C)CC1=O [(−)-menthone] the EC50 [6] was 1.64 × 10^−7 v/v dilution.
In the case of CC12CCC(CC1=O)C2(C)C (centres unmarked) [camphor], the EC50 [8] is reported as 1.94 × 10^−5 v/v dilution.
CC(C)=CCCC(C)=CC=O [citral] was tested, and the EC50 [4] was 3.32 × 10^−8 v/v dilution.
For O=c1ccc2ccccc2o1 [coumarin], the EC50 [9] was 2 × 10^−5 v/v dilution and the EC50 [7] was 1.45 × 10^−5 v/v dilution.
For CCCCCCCCCC=O [decanal], the EC50 [2] was 4.27 × 10^−6 v/v dilution and the EC50 [10] was 1.53 × 10^−6 v/v dilution.
In the case of CC12CCC(CC1)C(C)(C)O2 [eucalyptol], the EC50 [8] is reported as 1.88 × 10^−5 v/v dilution.
For CCCCCCCCC=O [nonanal], the EC50 [10] was 1.32 × 10^−7 v/v dilution.
With CCCCC/C=C/CO [trans-2-octen-1-ol] the EC50 [11] was 1.03 × 10^−4 v/v dilution.
For C=C1CC/C=C(\C)CC[C@@H]2[C@@H]1CC2(C)C [β-caryophyllene], the EC50 [12] was 6.46 × 10^−6 v/v dilution.

Reference: paper PMC5382537, “Molecular Basis of Olfactory Chemoreception in the Common Bed Bug, Cimex lectularius” (Scientific Reports, 2017)
